Data set [1] is described as follows: Adverse events in healthy subjects treated with Compound 1 with and without cobicistat. The class given is in vivo, human. How it is done: (§1) Healthy subjects were treated with Compound 1 with or without pretreatment with cobicistat. A single 400 mg dose of Compound 1 was administered under fasted conditions. There was a 7-day washout between administrations of the two single doses of Compound 1. Compound 1 was administered alone on Day 1 of Period 1 and administered in the presence of cobicistat on Day 1 of Period 2. Cobicistat was administered at a dose of 150 mg once daily for three days, with the third dose preceding the single dose of Compound 1 by two hours. Blood samples were collected for pharmacokinetic analysis of Compound 1 on Day 1 of each period at the following time points 0 (predose), 0.5, 1, 1.5, 2, 3, 4, 6, 8, 10, and 24 hours after the single dose of Compound 1.
All six subjects were males between the ages of 31 and 52 years. Three of the 6 subjects (50%) treated with Compound 1 with and without cobicistat reported a total of 6 adverse events. Diarrhea, reported in 2 subjects, was the only adverse event reported by more than one subject. The other adverse events reported by a single subject each included: abdominal pain, back pain, groin pain, and upper respiratory tract infection. Three of the 6 adverse events were considered to be related to study drug: concurrent events of diarrhea and abdominal pain and the other case of diarrhea. All adverse events were reported in Period 2, after dosing of all study drugs had been completed.

The nature of data set [2]: Exposure of Compound 1 upon multiple-dose administration. The class given is in vivo.
The subject of a further data set is CYP3A. Kind of data set: Metabolism by and induction of hepatic enzyme CYP3A. Type of data set: in vitro ADME.
A short description of data set [3]: Single-dose pharmacokinetics of Compound 1 with or without cobicistat pretreatment in healthy subjects. The class given is in vivo, human. Here is the method:
as §1

The mark [4] stands for this setting: 6 healthy male subjects, Compound 1 with and without cobicistat.
Where [5] appears, read: single 400 mg Compound 1 with cobicistat 150 mg pretreatment vs alone.
[6] abbreviates: single 400 mg Compound 1 with cobicistat 150 mg pretreatment vs alone, lower bound over all subjects.

The record followed here is patent US20210000815A1, “PHARMACOKINETIC ENHANCEMENT OF EZH2 INHIBITORS THROUGH COMBINATION THERAPIES” (Constellation Pharmaceuticals, Inc., priority 2017, published 2021).

Broadly, the half-life is the time needed for the level to fall by half in the phase considered.

The structures appear in SMILES notation. “Also recorded” adds a separate entry of the source.

With `COc1cc(C)[nH]c(=O)c1CNC(=O)c1c(C)n([C@H](C)C2CCN(CC(F)(F)F)CC2)c2ccccc12` [Compound 1, (R)—N-((4-methoxy-6-methyl-2-oxo-1,2-dihydropyridin-3-yl)methyl)-2-methyl-1-(1-(1-(2,2,2-trifluoroethyl)piperidin-4-yl)ethyl)-1H-indole-3-carboxamide], in data set [1] (setting [4]), the “Number of subjects reporting diarrhea” value is reported as 2 subjects, the “Subjects reporting adverse events” value was 50% and the “Total number of adverse events reported” value was determined as 6. The “Severity of adverse events” value in data set [1] (with the exception of a moderate case of upper respiratory tract infection) was “mild in severity”. The “Reduction in AUC with multiple doses” value in data set [2] is given as “approximately 60%”. Further, in the data set with CYP3A, the CYP3A induction result is listed as “stronger inducer of CYP3A” and the Primary metabolizing enzyme entry is listed as “primarily metabolized by the hepatic enzyme CYP3A”. In data set [3] (male, human, plasma, oral, all subjects treated with Compound 1 and cobicistat), the half-life is under 5 h. Further, in data set [3] (setting [5]), the “Clearance decrease in the presence of cobicistat” value is reported as 6.9 fold, the “Effect of cobicistat on Tmax” value is on record as “unaffected” and the “Effect of cobicistat on terminal half-life (T1/2)” value is “unaffected; also recorded: little or no effect”. For the same compound, in data set [3] (setting [6]), the “AUC increase in the presence of cobicistat, all subjects (least)” value is at least 4.9 fold; the “Cmax increase in the presence of cobicistat, all subjects (least)” value is given as at least 2.8 fold; the “Cmin increase in the presence of cobicistat, all subjects (least)” value is given as at least 19 fold. Besides, in data set [3] (single dose), the “Exposure of Compound 1 400 mg with cobicistat 150 mg in healthy subjects compared with single 1600 mg dose of Compound 1 alone in patients with lymphoma” value is listed as “remarkably similar”.
